Source: patent US20230085307A1, “PYRIDAZINONE COMPOUND AND HERBICIDE” (NISSAN CHEMICAL CORPORATION, priority 2019, published 2023)

How the values were obtained:
green foxtail [1] = experiment: Test Example 4: herbicidal effect by soil treatment (Table 19, symbol G); assay type: in vivo, green foxtail (Setaria viridis); conditions: 320 g/ha
In short: (§1)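 Emulsion of test compound, water-diluted to predetermined amount, sprayed on soil after sowing (seed depth ~1.5 cm, sterilized diluvial soil). Greenhouse, 25–30° C. Effect graded at three weeks post-spray.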

chickweed [2] = experiment: Test Example 5: herbicidal effect by foliage application, plastic box (Table 20, symbol P); assay type: in vivo, common chickweed (Stellaria media); conditions: foliage application, 320 g/ha, evaluated three weeks after application
In short: (§2)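 Post-emergence foliar test in sterilized diluvial soil. Compound applied as water-diluted emulsion at a predetermined rate to 14-day-old plants; evaluation at three weeks.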

wild oat [3] = experiment: Test Example 5: herbicidal effect by foliage application, plastic box (Table 20, symbol I); assay type: in vivo, wild oat (Avena fatua); conditions: foliage application, 320 g/ha, evaluated three weeks after application
In short: as §2

lambsquarters [4] = experiment: Test Example 4: herbicidal effect by soil treatment (Table 19, symbol O); assay type: in vivo, lambsquarters (Chenopodium album); conditions: 320 g/ha
In short: as §1

redroot pigweed [5] = experiment: Test Example 5: herbicidal effect by foliage application, plastic box (Table 20, symbol N); assay type: in vivo, redroot pigweed (Amaranthus retroflexus); conditions: foliage application, 320 g/ha, evaluated three weeks after application
In short: as §2

windgrass [6] = experiment: Test Example 4: herbicidal effect by soil treatment (Table 19, symbol L); assay type: in vivo, windgrass (Apera spica-venti); conditions: 320 g/ha
In short: as §1

southern crabgrass [7] = experiment: Test Example 5: herbicidal effect by foliage application, plastic box (Table 20, symbol F); assay type: in vivo, southern crabgrass (Digitaria ciliaris); conditions: foliage application, 320 g/ha, evaluated three weeks after application
In short: as §2

barnyard grass [8] = experiment: Test Example 3: herbicidal effect by foliage application, Wagner pot (Table 18, symbol H); assay type: in vivo, barnyard grass (Echinochloa crus-galli); conditions: 320 g/ha
In short: (§3)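 Plants were sown in alluvial soil held under 0.1–0.5 cm standing water and grown 14 days in a greenhouse at 25–30 °C. An emulsifiable formulation, water-diluted to the set dose, was then sprayed onto the foliage, and effects were scored three weeks later using previously defined criteria.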

velvetleaf [9] = experiment: Test Example 5: herbicidal effect by foliage application, plastic box (Table 20, symbol M); assay type: in vivo, velvetleaf (Abutilon theophrasti); conditions: foliage application, 320 g/ha, evaluated three weeks after application
In short: as §2

Chinese sprangletop = experiment: Test Example 3: herbicidal effect by foliage application, Wagner pot (Table 18, symbol D); assay type: in vivo, chinese sprangletop (Leptochloa chinensis); conditions: 320 g/ha
In short: as §3

blackgrass [10] = experiment: Test Example 5: herbicidal effect by foliage application, plastic box (Table 20, symbol J); assay type: in vivo, blackgrass (Alopecurus myosuroides); conditions: foliage application, 320 g/ha, evaluated three weeks after application
In short: as §2

Italian ryegrass [11] = experiment: Test Example 4: herbicidal effect by soil treatment (Table 19, symbol K); assay type: in vivo, Italian ryegrass (Lolium multiflorum); conditions: 320 g/ha
In short: as §1

persian speedwell [12] = experiment: Test Example 4: herbicidal effect by soil treatment (Table 19, symbol R); assay type: in vivo, Persian speedwell (Veronica persica); conditions: 320 g/ha
In short: as §1

southern crabgrass [13] = experiment: Test Example 4: herbicidal effect by soil treatment (Table 19, symbol F); assay type: in vivo, southern crabgrass (Digitaria ciliaris); conditions: 320 g/ha
In short: as §1

green foxtail [14] = experiment: Test Example 5: herbicidal effect by foliage application, plastic box (Table 20, symbol G); assay type: in vivo, green foxtail (Setaria viridis); conditions: foliage application, 320 g/ha, evaluated three weeks after application
In short: as §2

chickweed [15] = experiment: Test Example 4: herbicidal effect by soil treatment (Table 19, symbol P); assay type: in vivo, common chickweed (Stellaria media); conditions: 320 g/ha
In short: as §1

lambsquarters [16] = experiment: Test Example 5: herbicidal effect by foliage application, plastic box (Table 20, symbol O); assay type: in vivo, lambsquarters (Chenopodium album); conditions: foliage application, 320 g/ha, evaluated three weeks after application
In short: as §2

barnyard grass [17] = experiment: Test Example 5: herbicidal effect by foliage application, plastic box (Table 20, symbol H); assay type: in vivo, barnyard grass (Echinochloa crus-galli); conditions: foliage application, 320 g/ha, evaluated three weeks after application
In short: as §2

windgrass [18] = experiment: Test Example 5: herbicidal effect by foliage application, plastic box (Table 20, symbol L); assay type: in vivo, windgrass (Apera spica-venti); conditions: foliage application, 320 g/ha, evaluated three weeks after application
In short: as §2

velvetleaf [19] = experiment: Test Example 4: herbicidal effect by soil treatment (Table 19, symbol M); assay type: in vivo, velvetleaf (Abutilon theophrasti); conditions: 320 g/ha
In short: as §1

rice flat sedge = experiment: Test Example 3: herbicidal effect by foliage application, Wagner pot (Table 18, symbol E); assay type: in vivo, rice flat sedge (Cyperus iria); conditions: 320 g/ha
In short: as §3

persian speedwell [20] = experiment: Test Example 5: herbicidal effect by foliage application, plastic box (Table 20, symbol R); assay type: in vivo, Persian speedwell (Veronica persica); conditions: foliage application, 320 g/ha, evaluated three weeks after application
In short: as §2

wild oat [21] = experiment: Test Example 4: herbicidal effect by soil treatment (Table 19, symbol I); assay type: in vivo, wild oat (Avena fatua); conditions: 320 g/ha
In short: as §1

Italian ryegrass [22] = experiment: Test Example 5: herbicidal effect by foliage application, plastic box (Table 20, symbol K); assay type: in vivo, Italian ryegrass (Lolium multiflorum); conditions: foliage application, 320 g/ha, evaluated three weeks after application
In short: as §2

barnyard grass [23] = experiment: Test Example 4: herbicidal effect by soil treatment (Table 19, symbol H); assay type: in vivo, barnyard grass (Echinochloa crus-galli); conditions: 320 g/ha
In short: as §1

blackgrass [24] = experiment: Test Example 4: herbicidal effect by soil treatment (Table 19, symbol J); assay type: in vivo, blackgrass (Alopecurus myosuroides); conditions: 320 g/ha
In short: as §1

redroot pigweed [25] = experiment: Test Example 4: herbicidal effect by soil treatment (Table 19, symbol N); assay type: in vivo, redroot pigweed (Amaranthus retroflexus); conditions: 320 g/ha
In short: as §1

Row | SMILES | herbicidal effect rating, G: green foxtail (green foxtail [1]) | herbicidal effect on P: chickweed (chickweed [2]) | herbicidal effect on I: wild oat (wild oat [3]) | herbicidal effect rating, O: lambsquarters (lambsquarters [4]) | herbicidal effect on N: redroot pigweed (redroot pigweed [5]) | herbicidal effect rating, L: windgrass (windgrass [6]) | herbicidal effect on F: southern crabgrass (southern crabgrass [7]) | herbicidal effect on H (barnyard grass), rating 0-5 (barnyard grass [8]) | herbicidal effect on M: velvetleaf (velvetleaf [9]) | herbicidal effect on D (Chinese sprangletop), rating 0-5 (Chinese sprangletop) | herbicidal effect on J: blackgrass (blackgrass [10]) | herbicidal effect rating, K: Italian ryegrass (Italian ryegrass [11]) | herbicidal effect rating, R: persian speedwell (persian speedwell [12]) | herbicidal effect rating, F: southern crabgrass (southern crabgrass [13]) | herbicidal effect on G: green foxtail (green foxtail [14]) | herbicidal effect rating, P: chickweed (chickweed [15]) | herbicidal effect on O: lambsquarters (lambsquarters [16]) | herbicidal effect on H: barnyard grass (barnyard grass [17]) | herbicidal effect on L: windgrass (windgrass [18]) | herbicidal effect rating, M: velvetleaf (velvetleaf [19]) | further results
1 | Cc1nn(C)c(=O)c(-c2c(-c3ccc(OCC#N)cc3)sc3ccc(F)cc23)c1O [2-066] | 0 (Herbicidal rate of 5% or less (almost no effect)) | 5 (Herbicidal rate of 90% or more (almost completely withered)) | 0 (Herbicidal rate of 5% or less (almost no effect)) | 0 (Herbicidal rate of 5% or less (almost no effect)) | 5 (Herbicidal rate of 90% or more (almost completely withered)) | 0 (Herbicidal rate of 5% or less (almost no effect)) | 3 (Herbicidal rate of 40% or more and less than 70%) | 4 (Herbicidal rate of 70% or more and less than 90%) | 3 (Herbicidal rate of 40% or more and less than 70%) | 3 (Herbicidal rate of 40% or more and less than 70%) | 0 (Herbicidal rate of 5% or less (almost no effect)) | 0 (Herbicidal rate of 5% or less (almost no effect)) | 4 (Herbicidal rate of 70% or more and less than 90%) | 0 (Herbicidal rate of 5% or less (almost no effect)) | 4 (Herbicidal rate of 70% or more and less than 90%) | 4 (Herbicidal rate of 70% or more and less than 90%) | 4 (Herbicidal rate of 70% or more and less than 90%) | 2 (Herbicidal rate of 20% or more and less than 40%) | 0 (Herbicidal rate of 5% or less (almost no effect)) | 0 (Herbicidal rate of 5% or less (almost no effect)) | herbicidal effect on E (rice flat sedge), rating 0-5 (rice flat sedge): 1 (Herbicidal rate of 5% or more and less than 20%); herbicidal effect on R: persian speedwell (persian speedwell [20]): 5 (Herbicidal rate of 90% or more (almost completely withered)); herbicidal effect rating, I: wild oat (wild oat [21]): 0 (Herbicidal rate of 5% or less (almost no effect)); herbicidal effect on K: Italian ryegrass (Italian ryegrass [22]): 1 (Herbicidal rate of 5% or more and less than 20%); herbicidal effect rating, H: barnyard grass (barnyard grass [23]): 0 (Herbicidal rate of 5% or less (almost no effect)); herbicidal effect rating, J: blackgrass (blackgrass [24]): 0 (Herbicidal rate of 5% or less (almost no effect)); herbicidal effect rating, N: redroot pigweed (redroot pigweed [25]): 0 (Herbicidal rate of 5% or less (almost no effect))
2 | CON=C(C)COc1ccc(-c2sc3ccc(F)cc3c2-c2c(O)c(C)nn(C)c2=O)cc1 [2-069] | 5 (Herbicidal rate of 90% or more (almost completely withered)) | 5 (Herbicidal rate of 90% or more (almost completely withered)) | 2 (Herbicidal rate of 20% or more and less than 40%) | 5 (Herbicidal rate of 90% or more (almost completely withered)) | 5 (Herbicidal rate of 90% or more (almost completely withered)) | 0 (Herbicidal rate of 5% or less (almost no effect)) | 5 (Herbicidal rate of 90% or more (almost completely withered)) | 5 (Herbicidal rate of 90% or more (almost completely withered)) | 5 (Herbicidal rate of 90% or more (almost completely withered)) | 4 (Herbicidal rate of 70% or more and less than 90%) | 5 (Herbicidal rate of 90% or more (almost completely withered)) | 5 (Herbicidal rate of 90% or more (almost completely withered)) | 5 (Herbicidal rate of 90% or more (almost completely withered)) | 5 (Herbicidal rate of 90% or more (almost completely withered)) | 5 (Herbicidal rate of 90% or more (almost completely withered)) | 4 (Herbicidal rate of 70% or more and less than 90%) | 5 (Herbicidal rate of 90% or more (almost completely withered)) | 5 (Herbicidal rate of 90% or more (almost completely withered)) | 5 (Herbicidal rate of 90% or more (almost completely withered)) | 3 (Herbicidal rate of 40% or more and less than 70%) | herbicidal effect on E (rice flat sedge), rating 0-5 (rice flat sedge): 5 (Herbicidal rate of 90% or more (almost completely withered)); herbicidal effect on R: persian speedwell (persian speedwell [20]): 5 (Herbicidal rate of 90% or more (almost completely withered)); herbicidal effect rating, I: wild oat (wild oat [21]): 0 (Herbicidal rate of 5% or less (almost no effect)); herbicidal effect on K: Italian ryegrass (Italian ryegrass [22]): 5 (Herbicidal rate of 90% or more (almost completely withered)); herbicidal effect rating, H: barnyard grass (barnyard grass [23]): 5 (Herbicidal rate of 90% or more (almost completely withered)); herbicidal effect rating, J: blackgrass (blackgrass [24]): 0 (Herbicidal rate of 5% or less (almost no effect)); herbicidal effect rating, N: redroot pigweed (redroot pigweed [25]): 5 (Herbicidal rate of 90% or more (almost completely withered))
